Starred links: 1 amine or outer side, 2 acyl side, 3 side chain; linkers in the order of their positions; H or OH if unused. Positions of bridges follow the written chain, without caps; N, C: chain ends. Non-standard residues stand in square brackets, D forms with d. Residues, ends and D or L forms follow the SMILES beside them. Chains are numbered I, II in the order given. Actinocin(9to1) = Cc1c2oc3c(C)ccc(C(=O)[*:1])c3nc-2c(C(=O)[*:2])c(N)c1=O; NMeV = CN[C@H](C(=O)O)C(C)C; Sar = CNCC(=O)O
System: 786-0 cells
Test: Apoptosis in 786-0 cells (Annexin V / PI flow cytometry)
Assay type: cell-based
Set-up: unit not given here
Settings: 200 ng/mL
Protocol: In order to evaluate the mechanism of action of these compounds, 786-0 cell cultures were treated with Cpd 9 or Cpd 28 at different concentrations overnight and then analyzed for apoptotic induction. The cells were stained using standard methods with Annexin V and/or Propedium iodine (PI) at room temperature for 15 minutes. Apoptotic cells at early (Annexin V positive) or late stage (both Annexin V and PI positive) were detected by Flow Cytometry.

## Cc1c2oc3c(C)ccc(C(=O)N[C@@H]4C(=O)N[C@H](C(C)C)C(=O)N5CCC[C@H]5C(=O)N(C)CC(=O)N(C)[C@@H](C(C)C)C(=O)O[C@@H]4C)c3nc-2c(C(=O)N[C@@H]2C(=O)N[C@H](C(C)C)C(=O)N3CCC[C@H]3C(=O)N(C)CC(=O)N(C)[C@@H](C(C)C)C(=O)O[C@@H]2C)c(N)c1=O [Actinomycin D, reference compound] (I: T[dV]P[Sar][NMeV] / II: T[dV]P[Sar][NMeV]; ester I:1-I:C, II:1-II:C; linker I:N-II:N via Actinocin(9to1))
  Early stage apoptotic cells: 16.93
  Late stage apoptotic cells: 12.63
  Total Apoptotic Cells: 29.56

Reference: US9981983B2, “Thienopyranones as kinase inhibitors” (SignalRx Pharmaceuticals, Inc., priority 2008, dated 2018)
